{
  "source": "patent US20110263423A1",
  "about": "“Plant Health Composition” (BASF SE, priority 2008, published 2011)",
  "type_in_all_cases": "in vivo",
  "key": {"[1]": {"tested_on": "spring wheat (cv. Passat)", "test": "Spring wheat pot trial, severe drought stress (Example 2)", "procedure": "Spring wheat (cv. Passat) was cultivated in Mitcherlich pots as described above in example 1. The experiment was conducted with 6 replications in a vegetation hall. Experiments were carried out under semi controlled conditions at very low disease-pressure with insignificant infection rates, protected from any undesired rain or water impact. The water consumption of each pot was calculated on the basis of the recorded measurements of the weight of the pots prior to each irrigation event up to the defined set point.\nNitrogen fertilizer (totally 1.75 g N/pot) was added in equal amounts at 3 stages to allow optimal growth conditions throughout the life cycle. All plants/pots were grown at optimal water supply by watering 2-3 times a day to 60% of the water holding capacity of the soil until growth stage 55 (BBCH). Then, pots were only watered to 60% of the maximum water holding capacity of the soil after clear water stress symptoms on the plants were visible to apply severe drought stress.\nCompound Ia (62.5 g/l, 2 L in 400 L water/ha) was applied at growth stage 39/49 (BBCH scale), which is an EC formulation of compound Ia. Control plants were not treated.\nAfter ripening of the plants, the grain was harvested and uniformly dried to 5% moisture content. Grain yield per pot, grain yield per ear, number of grains per ear and number of grains per pot were determined as indicators of plant vigor and plant yield. The relation of grain yield to straw added to the grain yield was used to calculate the harvest index."}, "Soybeans (M-SOY 6001 RR)": {"tested_on": "Soybeans (M-SOY 6001 RR)", "test": "Soybean field trial Brazil, ternary mixture, Colby synergism (Example 7)", "details": "soybean M-SOY 6001 RR, Ia 40, epoxiconazol 40, pyraclostrobin 65 g a.i./ha", "procedure": "Soybeans were grown in 2008 at the CEDUP “Caetano Vieira da Costa” in Sao José do Cerrito, Santa […], Brazil. The variety M-SOY 6001 RR was planted in 2007, 11 Nov., at a seeding rate of 300.000 plants per ha. Row spacing was 50 cm. The trial was setup as a randomized bloc design with 4 replications. Plot size was 12.5 m^2. Fungicide treatments were applied at BBCH GS 70-79 (pods reached 15-20 mm of final […]). The fungicides were used as formulations. Compound Ia was applied as an EC formulation (62.5 g/L-EC) at 0.64 L/ha (40 g ai/ha). […] The adjuvant DASH HC was added to the spray tank with 0.3% (v/v). Finally, compound Ia was applied in a mixture together with epoxiconazol and pyraclostrobin forming a ternary mixture according to the present invention, using a coformulation of all three compounds (50 g/L of compound Ia+50 g/L of epoxiconazol+81 g/L of pyraclostrobin-EC). This formulation was sprayed at a rate of 0.8 […] compound […] epoxiconazol+65 g a.i./ha pyraclostrobin). The formulations were diluted in water. Total spray volume for foliar application was 150 L/ha. The trial was conducted under low disease pressure. […] Plots were harvested at maturity of the soybean crop and the yield (thousand grain weight) was determined (table 11). The efficacy in yield increase was calculated as % increase of the Thousand Grain Weight (TGW) by the treatments compared to the untreated control. […]"}, "[2]": {"tested_on": "spring wheat (cv. Passat)", "test": "Spring wheat pot trial, moderate drought stress (Example 3)", "procedure": "Spring wheat (cv. Passat) was cultivated in Mitcherlich pots as described above in example 1. The experiment was conducted with 6 replications in a vegetation hall. Experiments were carried out under semi controlled conditions at very low disease-pressure with insignificant infection rates, protected from any undesired rain or water impact. The water consumption of each pot was calculated on the basis of the recorded measurements of the weight of the pots prior to each irrigation event up to the defined set point. Pots without crop coverage were used to estimate the evaporation of the soil.\nNitrogen fertilizer (totally 1.75 g N/pot) was added in equal amounts at 3 stages to allow optimal growth conditions throughout the life cycle. All plants/pots were grown at optimal water supply by watering 2-3 times a day to 60% of the water holding capacity of the soil until growth stage 55 (BBCH). Then, pots were only watered to 30% of the maximum water holding capacity of the soil to apply moderate drought stress. Compound Ia (62.5 g/l, 2 L in 400 L water/ha) was applied at growth stage 39/49 (BBCH scale), which is an EC formulation of comound Ia. Control plants were not treated.\nAt maturity of the plants the grain was harvested and uniformly dried to 5% moisture content. Number of grains per pot was counted after harvest. Thousand Grain Weight (TGW), as an indicator of plant yield, was calculated based on grain yield per pot and number of grains per pot. Transpiration was calculated on the basis of the amount of water added to the respective pots and the estimated soil evaporation. Water use efficiency, as an indicator of drought stress tolerance of a plant, was calculated based on the respective transpiration per pot."}, "[3]": {"tested_on": "Soybeans (Pioneer 93-M-11, Crow C300 42)", "test": "Soybean field trials, Dinuba 2008 (Example 4)", "procedure": "Soybeans were grown in 2008 in two field trials at the BASF experimental station in Dinuba, 10181 Avenue 416, Calif., U.S.A. In one trial, the variety Pioneer 93-M-11 was planted at a seeding rate of 88 kg/ha. In a second trial, the variety Crow C300 42 was planted at the same seeding rate. Both trials were setup as randomized complete block design with 5 replications, each. Plot size was 42 m^2. Compound la was used as an EC formulation (62.5 g a.i./L) with a dose rate of 0.64 L per hectar (40 g a.i./ha). The formulation was applied in a total spray volume of 300 L/ha. Compound Ia was sprayed at growth stage 34/37 (BBCH) with a tractor mounted spray boom with VS11003 spray nozzles at 3 bar spray pressure.\nNo disease symptoms were visible at the application time and no symptoms were detected at later stages.\nGreen leaf area, as an indicator of plant vigor, was assessed in the second trial (variety Crow C300 42) when all pods had reached their final size by estimating the green leaf area in 10 randomly chosen plants per plot. At maturity the grain was harvested and the grain yield per plot, as an indicator of plant yield, was determined (kg/plot). Finally, the grain yield per hectare was calculated (dt/ha). Thousand Grain Weight (TGW) was determined in the second trial (Crow C300 42)."}, "[4]": {"details": "severe drought stress from BBCH 55, 2 L/ha EC at BBCH 39/49"}, "[5]": {"details": "moderate drought stress, 2 L/ha EC at BBCH 39/49"}, "[6]": {"details": "40 g a.i./ha, listed as compound Ia"}},
  "data": [
    {"smiles": "Cn1cc(C(=O)Nc2ccccc2-c2cc(F)c(F)c(F)c2)c(C(F)F)n1", "note": "[Compound Ia, N-(3′,4′,5′-trifluorobiphenyl-2-yl)-3-difluoromethyl-1-methyl-1H-pyrazole-4-carboxamide]", "values": [
      {"measurement": "Harvest index, change vs untreated control", "setting": "[1]; severe drought stress", "result": "(+3%)"},
      {"measurement": "Number of grains per ear, change vs untreated control", "setting": "[1]; severe drought stress", "result": "(+3%)"},
      {"measurement": "Single ear grain yield, change vs untreated control", "setting": "[1]; severe drought stress", "result": "(+3%)"},
      {"measurement": "Harvest index (grain yield g/grain + straw yield g)", "setting": "[1]; [4]", "result": 0.42},
      {"measurement": "Number of grains per ear", "setting": "[1]; [4]", "result": 49.9},
      {"measurement": "Single ear grain yield", "setting": "[1]; [4]", "result": 1.31, "unit": "g/ear"},
      {"measurement": "Observed efficacy (% increase of TGW vs untreated control)", "setting": "Soybeans (M-SOY 6001 RR)", "result": 0, "unit": "%"},
      {"measurement": "TGW", "setting": "Soybeans (M-SOY 6001 RR); BBCH 70-79", "result": 153, "unit": "g"},
      {"measurement": "Thousand Grain Weight, change vs untreated control", "setting": "[2]; moderate drought stress", "result": "(+4%)"},
      {"measurement": "Transpiration, change vs untreated control", "setting": "[2]; moderate drought stress", "result": "(−4%)"},
      {"measurement": "Water use efficiency, change vs untreated control", "setting": "[2]; moderate drought stress", "result": "(+3%)"},
      {"measurement": "Transpiration", "setting": "[2]; moderate drought stress (30% water holding capacity from BBCH 55), 2 L/ha EC at BBCH 39/49", "result": 26.5, "unit": "L water/pot"},
      {"measurement": "Thousand Grain Weight", "setting": "[2]; [5]", "result": 31.2, "unit": "g"},
      {"measurement": "Water use efficiency", "setting": "[2]; [5]", "result": 2.02, "unit": "g grain/L water"},
      {"measurement": "Soybean grain yield (Trial 1) Pioneer 93M11, increase as % of untreated", "setting": "[3]; 40 g a.i./ha", "result": "(+11.6%)"},
      {"measurement": "Soybean grain yield (Trial 2) Crow C300 42, increase as % of untreated", "setting": "[3]; 40 g a.i./ha", "result": "(+6.5%)"},
      {"measurement": "Soybean grain yield, Mean of two trials, increase as % of untreated", "setting": "[3]; 40 g a.i./ha", "result": "(+8.5%)"},
      {"measurement": "Soybean grain yield (Trial 1) Pioneer 93M11", "setting": "[3]; 40 g a.i./ha at BBCH 34/37", "result": 45.5, "unit": "dt/ha"},
      {"measurement": "Soybean grain yield (Trial 2) Crow C300 42", "setting": "[3]; 40 g a.i./ha at BBCH 34/37", "result": 67.1, "unit": "dt/ha"},
      {"measurement": "Soybean grain yield, Mean of two trials", "setting": "[3]; 40 g a.i./ha at BBCH 34/37", "result": 56.3, "unit": "dt/ha"},
      {"measurement": "Soybean grain yield (Trial 1) Pioneer 93M11, increase as % of untreated", "setting": "[3]; [6]", "result": "~12", "unit": "%"},
      {"measurement": "Soybean grain yield, Mean of two trials, increase as % of untreated", "setting": "[3]; [6]", "result": 8.5, "unit": "%"},
      {"measurement": "TGW", "setting": "[3]; soybean Crow C300 42 (second trial), 40 g a.i./ha at BBCH 34/37", "result": 177.0, "unit": "g"},
      {"measurement": "% Green leaf area", "setting": "[3]; soybean Crow C300 42 (second trial), 40 g a.i./ha at BBCH 34/37, pods at final size", "result": 88.4, "unit": "%"},
      {"measurement": "TGW, increase as % of untreated", "setting": "[3]; soybean Crow C300 42, 40 g a.i./ha", "result": "(+5.7%)"}
    ]}
  ]
}
